Measured values published in publication PMC8279416, “Structural Fine-Tuning of Desmuramylpeptide NOD2 Agonists Defines Their In Vivo Adjuvant Activity” (Journal of Medicinal Chemistry, 2021).

Columns and labels:
[1] = system: NIH/OlaHsd mice; experiment: In vivo ovalbumin-specific antibody response, first experiment (neutral liposomes); design: species or system mouse; settings: for Log10 (anti-OVA IgG1/anti-OVA IgG2a): first in vivo experiment, one week after the booster dose, mean ± SEM of 5 mice
Protocol: To determine whether enhanced antigen presentation in vitro is correlated to in vivo adjuvant activities, an immunization study was performed in a murine model of adjuvanticity. Specifically, the selected desmuramylpeptides were investigated for induction of systemic immune responses against the model antigen ovalbumin. Seven groups of NIH/OlaHsd mice were immunized with ovalbumin-containing neutral liposomes, either alone or with additional adjuvants of MDP or the desmuramylpeptides 1, 68, 74, 75, or 81. After immunization and one booster dose, the mice sera were collected and assayed for ovalbumin-specific IgG antibodies (Figure 10).
Multilamellar liposomes were prepared by the modified thin lipid film method as described previously.[130],[131] For the preparation of neutral liposomes, a 7:5 molar ratio of egg-phosphatidylcholine and cholesterol was used. For the preparation of negatively charged liposomes, a 7:5:1 molar ratio of egg-phosphatidylcholine, cholesterol, and dicetylphosphate was used, while a 7:5:0.5 molar ratio of egg-phosphatidylcholine, cholesterol, and Man-PEG-Pam was used in the preparation of mannosylated liposomes. Lipids (total lipid concentration, 4 mg/mL) were dissolved in chloroform/methanol (2:1). A methanol or chloroform/methanol solution of MDP or the desmuramylpeptides was added to the lipid solution for a final concentration of 2 mM and 1.5 mM for the first (Figure 10) and second (Figure 11) experiments, respectively. After rotary evaporation of the solvent, the remaining lipid film was dried in vacuum for 1 h and then dispersed by gentle handshaking in an ovalbumin solution in saline (0.0667 and 0.1 mg/mL for the first and second experiments, respectively). This was then left overnight at 4 °C to swell and stabilize. Liposome size was reduced by sonification. Nonentrapped material was not separated from liposomes, and the complete liposome suspension was used for immunizations.
For the first experiment (Figure 10), sex-matched NIH/OlaHsd mice (five per group) were immunized subcutaneously in the tail base and boosted one time after 21 days. The injection volume in all experimental groups was 0.15 mL per mouse, which corresponds to 10 μg of OVA, […], and 0.30 μmol of MDP and desmuramylpeptides. For the second experiment (Figure 11), sex-matched NIH/OlaHsd mice (five per group) were immunized and boosted two times subcutaneously into the tail base at 21-day intervals. The injection volume in all experimental groups was 0.1 mL per mouse, which corresponds to 10 μg of OVA, 400 μg of lipids, and 0.15 μmol of MDP and 75. The mice were anesthetized with ip application of ketamine/xylazine (25 mg/kg each) prior to blood collection from the axillary plexus on the seventh day after the last booster dose. Individual serum from each animal was decomplemented at 56 °C for 30 min and then stored at −20 °C until tested.
ELISA assays were performed as detailed previously.[46] Briefly, high-binding ELISA plates (Costar, U.S.A.) were coated with a 15 μg/mL solution of ovalbumin in carbonate buffer, pH 9.6, and incubated overnight at room temperature. Nonspecific antibody binding was blocked with 0.5% w/v bovine serum albumin in PBS-T (0.05% (v/v) Tween 20 in phosphate-buffered saline) for 2 h at 37 °C. After washing, five serial dilutions of mice sera and standard preparations were added in duplicate. Plates were incubated overnight at room temperature, washed, and analyzed for ovalbumin-specific IgG levels by incubation with HRP-conjugated goat anti-mouse IgG (2 h at 37 °C) and then, after washing, with 0.6 mg/mL o-phenylenediaminedihydrochloride solution in citrate-phosphate buffer, pH 5.0, with 0.5 μL of 30% H2O2 per milliliter for 30 min at room temperature in the dark. The enzymatic reaction was stopped with 12.5% H2SO4, and absorbance at 492 nm was measured using a microplate reader (Thermo Fisher Scientific, Waltham, MA, U.S.A.). […]

[2] = design: method as in PMID 29543461; settings: earlier work of the group; cited from earlier work
[3] = target: T1, NOD2 (Homo sapiens, UniProt Q9HC29); experiment: HEK-Blue NOD2 cell line reporter assay (NF-κB-inducible SEAP); type: cell-based; settings: HEK-Blue NOD2 cells, 18 h, mean ± SEM; for NOD2 activity at 2 μM (fold increase): NF-κB transcriptional (SEAP) activity relative to 0.1% DMSO; for EC50: 7 or 8 concentrations 1 nM to 20 μM
T1 construct: host or cells: HEK-Blue NOD2 cells (HEK293-derived)
T1 sequence (Q9HC29 whole entry): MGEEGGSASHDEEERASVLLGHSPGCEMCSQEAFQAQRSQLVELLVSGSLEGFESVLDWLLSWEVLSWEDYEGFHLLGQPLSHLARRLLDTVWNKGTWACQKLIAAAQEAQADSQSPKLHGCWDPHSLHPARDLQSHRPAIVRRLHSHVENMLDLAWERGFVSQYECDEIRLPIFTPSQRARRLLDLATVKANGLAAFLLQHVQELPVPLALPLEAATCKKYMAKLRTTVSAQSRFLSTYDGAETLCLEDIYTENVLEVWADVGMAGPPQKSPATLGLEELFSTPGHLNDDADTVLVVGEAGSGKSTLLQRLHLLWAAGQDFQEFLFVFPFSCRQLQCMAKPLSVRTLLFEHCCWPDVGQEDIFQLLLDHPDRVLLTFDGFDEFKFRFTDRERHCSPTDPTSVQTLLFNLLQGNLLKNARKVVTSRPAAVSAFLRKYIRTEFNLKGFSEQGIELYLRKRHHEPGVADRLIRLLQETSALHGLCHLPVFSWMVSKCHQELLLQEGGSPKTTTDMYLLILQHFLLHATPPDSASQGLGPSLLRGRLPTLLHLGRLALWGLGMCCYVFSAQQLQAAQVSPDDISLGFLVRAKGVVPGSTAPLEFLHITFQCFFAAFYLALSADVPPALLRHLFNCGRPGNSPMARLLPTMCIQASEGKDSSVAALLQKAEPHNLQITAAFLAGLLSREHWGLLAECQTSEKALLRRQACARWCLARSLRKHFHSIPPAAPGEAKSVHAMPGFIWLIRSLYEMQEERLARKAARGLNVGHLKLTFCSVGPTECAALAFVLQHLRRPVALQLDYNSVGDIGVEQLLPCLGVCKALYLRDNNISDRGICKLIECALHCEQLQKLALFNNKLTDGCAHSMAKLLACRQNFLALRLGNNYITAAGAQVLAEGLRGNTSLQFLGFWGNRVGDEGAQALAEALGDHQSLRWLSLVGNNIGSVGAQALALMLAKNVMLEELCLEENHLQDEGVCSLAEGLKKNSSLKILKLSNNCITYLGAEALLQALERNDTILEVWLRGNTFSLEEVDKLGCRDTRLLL
Protocol: To determine the NOD2 agonistic potential of the synthesized desmuramylpeptides at the cellular level, we used the validated and commercially available HEK-Blue NOD2 cell line reporter assay. HEK-Blue NOD2 cells were first treated for 18 h with MDP, 1, or the novel desmuramylpeptides at 2 μM. The NF-κB transcriptional activity measured was normalized to that of the vehicle treated (0.1% DMSO) control HEK-Blue NOD2 cells.
(§1) HEK-Blue NOD2 and NOD1 cell line reporter assays are derived from HEK293 cells by cotransfection of the hNOD2 or hNOD1 genes, respectively, and an NF-κB-inducible secreted embryonic alkaline phosphatase (SEAP) reporter gene. Following activation of NOD2 or NOD1, the resulting NF-κB induces production of SEAP, the levels of which can be quantified colorimetrically. […] After 18 h of incubation (37 °C, 5% CO2), secreted embryonic alkaline phosphatase (SEAP) activity was determined spectrophotometrically as absorbance at 630 nm (BioTek Synergy microplate reader; Winooski, VT, U.S.A.). EC50 values were calculated using Prism software (version 9; GraphPad Software, CA, U.S.A.). For determination of specificity, HEK-Blue NOD2 cells (2.5 × 10^5 cells/mL) were first pretreated for 1 h with a 10 μM NOD2 antagonist, before the addition of the compounds (2 μM), with incubation for 18 h. SEAP activity in the supernatants was determined as above. The experiments were run in duplicate and repeated as at least two independent biological replicates.

[4] = system: human PBMCs; experiment: Cytokine release from peripheral blood mononuclear cells (cytometric bead array); type: cell-based; settings: 2 μM, 18 h, without LPS
Protocol: The immunostimulatory effects of the selected desmuramylpeptides were evaluated using human primary peripheral blood mononuclear cells (PBMCs). This heterogeneous mixture of immune cells allowed the study of the effects of these NOD2 agonists in a physiologically relevant system, where other NOD2-interacting and downstream signaling proteins were present. The effects of desmuramylpeptides were first determined for the secreted cytokine profile using a cytometric bead array cytokine kit. Moreover, considering that activation of NOD2 is also an important amplification signal for Toll-like receptor (TLR)-induced inflammatory responses,[79]−[81] we also examined the effects on cytokine secretion of the combination of desmuramylpeptides with LPS, a well-known TLR4 agonist.
In line with previous studies, the effects of MDP and the desmuramylpeptides were most pronounced for the induction of the chemokine IL-8.[82]
Peripheral blood mononuclear cells were seeded (1 × 10^6 cells/mL) in 48-well plates in 500 μL of growth medium and treated with the compounds (2 μM) or with the corresponding vehicle (0.1% DMSO) in the absence and presence of LPS (10 ng/mL). Cell-free supernatants were collected after 18 h of incubation (37 °C, 5% CO2) and stored at −80 °C until tested. Cytokine production was determined with the BD Cytometric Bead Array Human Inflammatory Cytokines Kit (contents: IL-8, IL-1β, IL-6, IL-10, TNF, IL-12p70; BD Bioscience) on an Attune NxT flow cytometer (Thermo Fisher Scientific, Waltham, MA, U.S.A.). Standard curves were generated using recombinant cytokines contained in the kit. The data were analyzed using the FlowJo (Tree Star, Inc., Ashland, OR, U.S.A.) and Prism (GraphPad, San Diego, CA, U.S.A.) software. The experiments were repeated as four independent biological replicates. Statistical significance was determined by repeated measures one-way ANOVA followed with Dunnett’s multiple comparisons test.

[5] = target: T1, NOD2; experiment: Specificity: NOD2 antagonist pretreatment of HEK-Blue NOD2 cells; type: cell-based; settings: 10 μM NOD2 antagonist 1 h, then 2 μM compound 18 h
Protocol: Furthermore, the specificities were determined by pretreating HEK-Blue NOD2 cells with a previously reported NOD2 antagonist[77] prior to stimulation with MDP (2 μM) or the desmuramylpeptides (2 μM). The resulting NF-κB-induced SEAP activities were compared to those of the controls without the NOD2 antagonist pretreatment.
as §1
Supporting figure S2. […]

[6] = target: T2, NOD1 (Homo sapiens, UniProt Q9Y239); experiment: HEK-Blue NOD1 cell line reporter assay (selectivity); type: cell-based; settings: HEK-Blue NOD1 cells, 2 μM, 18 h
T2 construct: host or cells: HEK-Blue NOD1 cells (HEK293-derived)
T2 sequence (Q9Y239 1-953): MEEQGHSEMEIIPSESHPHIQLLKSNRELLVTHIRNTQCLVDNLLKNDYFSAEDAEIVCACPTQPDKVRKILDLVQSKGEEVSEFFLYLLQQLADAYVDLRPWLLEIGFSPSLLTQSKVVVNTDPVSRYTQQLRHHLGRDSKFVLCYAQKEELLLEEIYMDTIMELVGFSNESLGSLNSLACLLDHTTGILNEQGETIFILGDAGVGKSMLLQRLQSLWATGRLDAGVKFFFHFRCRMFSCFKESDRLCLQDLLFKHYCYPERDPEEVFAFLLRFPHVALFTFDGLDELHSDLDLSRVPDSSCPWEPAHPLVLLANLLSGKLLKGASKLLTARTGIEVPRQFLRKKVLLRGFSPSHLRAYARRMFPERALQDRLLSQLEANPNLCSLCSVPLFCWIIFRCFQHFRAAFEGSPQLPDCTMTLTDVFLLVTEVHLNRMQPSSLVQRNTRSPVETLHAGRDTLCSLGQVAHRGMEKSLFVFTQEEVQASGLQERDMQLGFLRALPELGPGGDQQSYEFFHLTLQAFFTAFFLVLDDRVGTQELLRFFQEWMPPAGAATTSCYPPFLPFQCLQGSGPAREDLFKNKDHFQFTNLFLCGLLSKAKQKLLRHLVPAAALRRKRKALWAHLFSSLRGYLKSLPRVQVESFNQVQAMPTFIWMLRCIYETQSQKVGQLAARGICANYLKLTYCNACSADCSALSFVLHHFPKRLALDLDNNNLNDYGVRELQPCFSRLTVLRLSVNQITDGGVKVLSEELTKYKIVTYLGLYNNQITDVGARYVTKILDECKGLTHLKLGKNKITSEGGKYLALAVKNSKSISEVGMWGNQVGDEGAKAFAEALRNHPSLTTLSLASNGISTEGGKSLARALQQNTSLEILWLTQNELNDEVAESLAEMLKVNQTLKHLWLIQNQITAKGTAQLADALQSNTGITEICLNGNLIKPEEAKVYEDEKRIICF
Protocol: As NOD2 and NOD1 agonists share certain structural characteristics, we wanted to determine whether these compounds selectively target NOD2. Selectivity against NOD1 of MDP and all of these synthesized desmuramylpeptides was analyzed in an analogous assay with the HEK-Blue NOD1 cell line.
as §1
Supporting figure S2. NOD1 agonistic activities of desmuramylpeptides. […]

[7] = neutral liposomes, 0.30 μmol adjuvant per dose, 1 week after booster

NOD2 activity at 2 μM (fold increase) [3] [fold increase] | EC50 [3] [nM] | NF-κB transcriptional activity after NOD2 antagonist pretreatment [5] | NOD1 agonistic activity [6] | SMILES | Log10 (anti-OVA IgG1/anti-OVA IgG2a) [1] | Ovalbumin-specific IgG1 response (in words) [1, 7] | Adjuvant activity: ovalbumin-specific IgG (in words) ([1]; neutral liposomes, 0.30 μmol adjuvant per dose, s.c., 1 week after booster) | Pyrogenicity [2] | Induction of cytokines IL-1β, IL-6, IL-8 and TNF-α, compound alone [4] | Ovalbumin-specific IgG2a response (in words) [1, 7]
 |  |  |  | CCOC(=O)CC[C@@H](NC(=O)[C@@H](NC(=O)CNC(=O)/C=C/c1ccc(O)c(OC)c1)C(C)C)C(=O)OCC [Compound 1] | 1.68 ± 0.06 | largely IgG1-based response | only marginal adjuvant activity | devoid of pyrogenicity |  | 
3.17 ± 0.03 | 30 ± 5 |  |  | CCCCCCCCCCCC(=O)Oc1ccc(/C=C/C(=O)NCC(=O)N[C@H](C(=O)N[C@H](CCC(=O)OCC)C(=O)OCC)C(C)C)cc1OC [Compound 74, Diethyl ((E)-3-(4-(Dodecanoyloxy)-3-methoxyphenyl)acryloyl)glycyl-L-valyl-D-glutamate] | 2.90 ± 0.39 |  |  |  | induced small increases in the levels of all four of these cytokines | slight suppression of the IgG2a response
2.28 ± 0.07 | 1730 ± 101 | reduced NOD2 activation | showed no activity in the NOD1 assay | CCOC(=O)CC[C@@H](NC(=O)[C@@H](NC(=O)CNC(=O)/C=C/c1ccc(O)c(O)c1)C(C)C)C(=O)OCC [Compound 21, Diethyl ((E)-3-(3,4-Dihydroxyphenyl)acryloyl)glycyl-L-valyl-D-glutamate] |  |  |  |  |  | 

SMILES | NOD2 activity at 2 μM (fold increase) [3] [fold increase] | EC50 [3] [nM] | NF-κB transcriptional activity after NOD2 antagonist pretreatment [5] | NOD1 agonistic activity [6] | Log10 (anti-OVA IgG1/anti-OVA IgG2a) [1] | Ovalbumin-specific IgG1 response (in words) [1, 7] | Adjuvant activity: ovalbumin-specific IgG (in words) ([1]; neutral liposomes, 0.30 μmol adjuvant per dose, s.c., 1 week after booster) | Pyrogenicity [2] | Induction of cytokines IL-1β, IL-6, IL-8 and TNF-α, compound alone [4] | Ovalbumin-specific IgG2a response (in words) [1, 7]
CCOC(=O)CC[C@@H](NC(=O)[C@@H](NC(=O)CNC(=O)/C=C/c1ccc(OC(C)=O)c(OC)c1)C(C)C)C(=O)OCC [Compound 73, Diethyl ((E)-3-(4-Acetoxy-3-methoxyphenyl)acryloyl)glycyl-L-valyl-D-glutamate] | 3.05 ± 0.03 | 62 ± 27 |  |  |  |  |  |  | induced small increases in the levels of all four of these cytokines | 
